Data reported in ChEMBL document CHEMBL1141723, “Specific targeting of metzincin family members with small-molecule inhibitors: progress toward a multifarious challenge” (Bioorg Med Chem, 2008).
The source made the active and inactive calls. The rule behind the calls is not given here.

Experiments:
[1] = biological target: Disintegrin and metalloproteinase domain-containing protein 33 (Homo sapiens, UniProt Q9BZ11); experiment: Inhibition of ADAM33
[2] = biological target: T1, 72 kDa type IV collagenase (Homo sapiens, UniProt P08253)
Target sequence in this assay (P08253 whole entry): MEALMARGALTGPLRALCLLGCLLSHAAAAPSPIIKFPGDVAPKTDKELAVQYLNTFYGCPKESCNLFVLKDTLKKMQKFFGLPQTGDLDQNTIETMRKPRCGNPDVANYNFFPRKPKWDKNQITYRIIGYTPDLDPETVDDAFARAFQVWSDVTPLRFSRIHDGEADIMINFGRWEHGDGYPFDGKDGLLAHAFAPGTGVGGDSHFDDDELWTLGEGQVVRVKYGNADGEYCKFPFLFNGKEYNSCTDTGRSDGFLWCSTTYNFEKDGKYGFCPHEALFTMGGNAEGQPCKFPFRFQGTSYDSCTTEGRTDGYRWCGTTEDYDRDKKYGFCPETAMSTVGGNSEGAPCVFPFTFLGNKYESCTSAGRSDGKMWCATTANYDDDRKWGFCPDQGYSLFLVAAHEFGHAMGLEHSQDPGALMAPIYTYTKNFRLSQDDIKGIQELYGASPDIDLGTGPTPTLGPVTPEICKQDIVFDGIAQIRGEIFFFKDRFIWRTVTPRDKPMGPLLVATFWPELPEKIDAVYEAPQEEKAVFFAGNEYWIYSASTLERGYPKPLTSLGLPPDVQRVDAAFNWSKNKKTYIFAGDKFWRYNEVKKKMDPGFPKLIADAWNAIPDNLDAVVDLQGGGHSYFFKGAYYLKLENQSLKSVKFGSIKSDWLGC

Collagenase 3 = Collagenase 3 (Homo sapiens, UniProt P45452); experiment: Inhibition of MMP13
[3] = biological target: Matrix metalloproteinase-15 (Homo sapiens, UniProt P51511)
Chain of Matrix metalloproteinase-15 (P51511 whole entry): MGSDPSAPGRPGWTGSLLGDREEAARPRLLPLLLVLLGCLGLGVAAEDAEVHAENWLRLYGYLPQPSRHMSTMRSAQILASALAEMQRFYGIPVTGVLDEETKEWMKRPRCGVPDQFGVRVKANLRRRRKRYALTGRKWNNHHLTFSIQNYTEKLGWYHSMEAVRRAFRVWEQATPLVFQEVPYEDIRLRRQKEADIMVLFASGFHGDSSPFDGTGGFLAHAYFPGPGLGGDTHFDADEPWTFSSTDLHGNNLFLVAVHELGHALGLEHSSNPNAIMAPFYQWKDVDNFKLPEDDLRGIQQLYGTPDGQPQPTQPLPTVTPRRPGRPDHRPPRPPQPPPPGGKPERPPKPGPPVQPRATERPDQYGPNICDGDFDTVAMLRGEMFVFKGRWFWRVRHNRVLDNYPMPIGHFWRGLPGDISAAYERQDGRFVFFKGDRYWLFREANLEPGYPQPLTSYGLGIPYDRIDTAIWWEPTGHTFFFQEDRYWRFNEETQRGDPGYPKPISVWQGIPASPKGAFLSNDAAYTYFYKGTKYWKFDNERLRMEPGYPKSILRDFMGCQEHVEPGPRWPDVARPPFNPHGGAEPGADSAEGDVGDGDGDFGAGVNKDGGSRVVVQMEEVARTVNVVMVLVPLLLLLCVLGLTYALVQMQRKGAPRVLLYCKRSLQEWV

[4] = biological target: T2, Matrix metalloproteinase-14 (Homo sapiens, UniProt P50281); experiment: Inhibition of MMP14
[5] = biological target: A disintegrin and metalloproteinase with thrombospondin motifs 1 (Homo sapiens, UniProt Q9UHI8); experiment: Inhibition of ADAMTS1
[6] = biological target: T3, Matrix metalloproteinase-9 (Homo sapiens, UniProt P14780); experiment: Inhibition of MMP9
T3 sequence (P14780 whole entry): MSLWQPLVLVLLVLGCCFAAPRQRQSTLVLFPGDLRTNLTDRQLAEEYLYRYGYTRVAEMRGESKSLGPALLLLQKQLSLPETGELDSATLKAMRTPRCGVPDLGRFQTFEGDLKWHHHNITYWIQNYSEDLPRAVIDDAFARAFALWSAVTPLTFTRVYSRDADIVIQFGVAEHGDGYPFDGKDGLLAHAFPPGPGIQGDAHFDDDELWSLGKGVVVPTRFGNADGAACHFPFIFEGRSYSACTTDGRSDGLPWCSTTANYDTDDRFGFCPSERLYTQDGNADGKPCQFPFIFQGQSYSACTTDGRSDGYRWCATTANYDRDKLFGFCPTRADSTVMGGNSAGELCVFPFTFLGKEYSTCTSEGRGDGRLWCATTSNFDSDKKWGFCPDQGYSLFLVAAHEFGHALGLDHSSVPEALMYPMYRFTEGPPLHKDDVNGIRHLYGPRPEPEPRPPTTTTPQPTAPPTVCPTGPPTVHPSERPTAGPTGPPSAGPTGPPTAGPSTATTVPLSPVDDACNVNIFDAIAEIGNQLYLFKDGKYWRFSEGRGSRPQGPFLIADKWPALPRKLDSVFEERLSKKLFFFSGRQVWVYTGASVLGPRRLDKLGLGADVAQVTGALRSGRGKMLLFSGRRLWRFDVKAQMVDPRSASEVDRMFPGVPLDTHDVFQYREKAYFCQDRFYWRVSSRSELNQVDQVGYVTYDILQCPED

Stromelysin-2 [7] = biological target: T4, Stromelysin-2 (Homo sapiens, UniProt P09238); experiment: Inhibition of MMP10
Target sequence in this assay (P09238 whole entry): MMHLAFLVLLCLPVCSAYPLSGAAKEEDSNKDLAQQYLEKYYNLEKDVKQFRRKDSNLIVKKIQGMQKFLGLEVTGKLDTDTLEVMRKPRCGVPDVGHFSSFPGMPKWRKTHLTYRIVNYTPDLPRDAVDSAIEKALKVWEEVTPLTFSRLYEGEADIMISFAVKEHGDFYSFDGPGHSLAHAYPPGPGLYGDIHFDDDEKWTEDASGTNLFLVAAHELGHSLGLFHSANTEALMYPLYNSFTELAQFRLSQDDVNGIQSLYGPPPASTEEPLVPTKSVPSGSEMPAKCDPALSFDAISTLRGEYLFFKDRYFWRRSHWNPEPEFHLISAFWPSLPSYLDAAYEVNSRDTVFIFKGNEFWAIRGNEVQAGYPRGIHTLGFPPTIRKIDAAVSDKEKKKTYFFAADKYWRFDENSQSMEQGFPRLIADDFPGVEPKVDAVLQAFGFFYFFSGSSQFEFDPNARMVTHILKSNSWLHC

Neutrophil collagenase [8] = biological target: T5, Neutrophil collagenase (Homo sapiens, UniProt P22894); experiment: Inhibition of MMP8
[9] = biological target: Disintegrin and metalloproteinase domain-containing protein 17 (Sus scrofa, UniProt O77636); experiment: Inhibition of pig TACE
[10] = biological target: A disintegrin and metalloproteinase with thrombospondin motifs 5 (Homo sapiens, UniProt Q9UNA0); experiment: Inhibition of ADAMTS5
[11] = biological target: T6, Disintegrin and metalloproteinase domain-containing protein 10 (Homo sapiens, UniProt O14672); experiment: Inhibition of ADAM10
T6 sequence (O14672 whole entry): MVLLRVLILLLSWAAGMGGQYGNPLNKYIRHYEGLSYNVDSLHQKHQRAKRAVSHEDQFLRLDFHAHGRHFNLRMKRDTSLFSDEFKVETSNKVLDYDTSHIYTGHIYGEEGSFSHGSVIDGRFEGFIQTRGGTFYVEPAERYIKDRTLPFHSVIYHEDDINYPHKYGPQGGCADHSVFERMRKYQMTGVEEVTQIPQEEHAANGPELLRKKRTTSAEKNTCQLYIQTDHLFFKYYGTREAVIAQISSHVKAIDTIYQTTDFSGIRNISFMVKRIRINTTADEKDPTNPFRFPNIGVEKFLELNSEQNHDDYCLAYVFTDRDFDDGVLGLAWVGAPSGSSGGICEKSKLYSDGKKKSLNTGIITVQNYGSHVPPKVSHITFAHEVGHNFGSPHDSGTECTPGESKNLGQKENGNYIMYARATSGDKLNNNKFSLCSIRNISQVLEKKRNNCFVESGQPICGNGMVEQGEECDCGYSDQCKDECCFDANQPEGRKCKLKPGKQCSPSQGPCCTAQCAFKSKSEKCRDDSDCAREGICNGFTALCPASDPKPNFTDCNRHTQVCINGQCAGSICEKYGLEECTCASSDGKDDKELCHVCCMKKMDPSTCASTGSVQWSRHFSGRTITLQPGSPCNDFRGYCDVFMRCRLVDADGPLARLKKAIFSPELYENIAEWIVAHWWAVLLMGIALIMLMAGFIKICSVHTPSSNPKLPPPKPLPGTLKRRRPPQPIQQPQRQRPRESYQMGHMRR

Stromelysin-1 [12] = biological target: T7, Stromelysin-1 (Homo sapiens, UniProt P08254)
Target sequence in this assay (P08254 whole entry): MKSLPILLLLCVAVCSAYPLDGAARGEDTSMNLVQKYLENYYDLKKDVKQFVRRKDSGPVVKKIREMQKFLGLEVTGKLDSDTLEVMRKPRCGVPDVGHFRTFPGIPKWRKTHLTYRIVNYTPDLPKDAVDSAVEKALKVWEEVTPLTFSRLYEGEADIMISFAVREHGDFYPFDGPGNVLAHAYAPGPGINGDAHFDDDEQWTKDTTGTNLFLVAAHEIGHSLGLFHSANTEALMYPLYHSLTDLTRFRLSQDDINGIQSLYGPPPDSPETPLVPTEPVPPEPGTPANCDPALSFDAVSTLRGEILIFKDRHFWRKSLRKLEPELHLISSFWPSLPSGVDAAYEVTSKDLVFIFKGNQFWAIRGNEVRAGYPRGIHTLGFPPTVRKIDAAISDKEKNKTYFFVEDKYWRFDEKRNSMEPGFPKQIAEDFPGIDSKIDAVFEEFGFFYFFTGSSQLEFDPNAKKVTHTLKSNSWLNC

Interstitial collagenase = biological target: T8, Interstitial collagenase (Homo sapiens, UniProt P03956)
T8 sequence (P03956 whole entry): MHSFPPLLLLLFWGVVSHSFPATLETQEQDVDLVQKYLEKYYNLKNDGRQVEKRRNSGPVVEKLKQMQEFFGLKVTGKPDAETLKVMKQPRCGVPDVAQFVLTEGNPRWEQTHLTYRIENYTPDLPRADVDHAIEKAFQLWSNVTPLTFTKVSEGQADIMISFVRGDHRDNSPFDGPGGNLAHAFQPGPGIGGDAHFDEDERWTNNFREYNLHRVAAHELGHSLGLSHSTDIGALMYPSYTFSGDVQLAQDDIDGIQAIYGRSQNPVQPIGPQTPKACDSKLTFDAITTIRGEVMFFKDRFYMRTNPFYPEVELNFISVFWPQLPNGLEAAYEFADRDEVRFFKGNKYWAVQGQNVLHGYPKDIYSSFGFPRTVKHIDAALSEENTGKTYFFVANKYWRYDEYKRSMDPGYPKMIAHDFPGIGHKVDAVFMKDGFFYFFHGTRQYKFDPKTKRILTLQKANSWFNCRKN

[13] = biological target: Bone morphogenetic protein 1 (Homo sapiens, UniProt P13497); experiment: Inhibition of BMP1
[14] = biological target: T9, Matrilysin (Homo sapiens) (UniProt P09237); experiment: Inhibition of MMP7
T9 sequence (whole entry): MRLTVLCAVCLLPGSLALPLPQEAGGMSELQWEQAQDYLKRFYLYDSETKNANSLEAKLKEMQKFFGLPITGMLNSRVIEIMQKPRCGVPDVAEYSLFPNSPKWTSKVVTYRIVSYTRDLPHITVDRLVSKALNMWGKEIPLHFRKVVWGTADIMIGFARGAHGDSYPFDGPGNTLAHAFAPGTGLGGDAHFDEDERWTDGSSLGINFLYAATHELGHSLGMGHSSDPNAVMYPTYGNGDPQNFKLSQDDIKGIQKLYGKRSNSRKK

[15] = biological target: T10, Interstitial collagenase (Homo sapiens) (UniProt P03956); experiment: Inhibition of MMP1
T10 sequence (whole entry): T8 sequence (P03956 whole entry)

[16] = biological target: T11, Matrix metalloproteinase-17 (Homo sapiens) (UniProt Q9ULZ9); experiment: Inhibition of MMP17
T11 sequence (whole entry): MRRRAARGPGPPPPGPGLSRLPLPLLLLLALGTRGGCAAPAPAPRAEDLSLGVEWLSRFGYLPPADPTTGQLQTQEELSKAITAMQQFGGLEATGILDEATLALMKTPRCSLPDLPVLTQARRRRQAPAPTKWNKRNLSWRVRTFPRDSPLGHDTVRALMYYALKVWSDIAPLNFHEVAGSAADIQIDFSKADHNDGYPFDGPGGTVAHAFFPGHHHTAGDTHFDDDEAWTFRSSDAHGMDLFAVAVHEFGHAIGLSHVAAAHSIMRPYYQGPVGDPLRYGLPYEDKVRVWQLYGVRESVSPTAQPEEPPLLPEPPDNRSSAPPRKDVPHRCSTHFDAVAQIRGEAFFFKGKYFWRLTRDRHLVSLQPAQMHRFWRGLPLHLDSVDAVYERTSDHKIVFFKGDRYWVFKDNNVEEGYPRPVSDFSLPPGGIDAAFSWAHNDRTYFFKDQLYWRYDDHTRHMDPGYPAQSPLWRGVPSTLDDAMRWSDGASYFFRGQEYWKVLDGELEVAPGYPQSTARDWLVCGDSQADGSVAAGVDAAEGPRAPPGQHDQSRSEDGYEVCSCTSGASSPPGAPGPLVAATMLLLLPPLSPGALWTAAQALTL

[17] = biological target: T12, Macrophage metalloelastase (Homo sapiens, UniProt P39900); experiment: Inhibition of MMP12
[18] = Selectivity for pig TACE over MMP8
[19] = Selectivity for pig TACE over MMP9
[20] = biological target: T13, Matrix metalloproteinase-16 (Homo sapiens, UniProt P51512); experiment: Inhibition of MMP16
T13 sequence (P51512 whole entry): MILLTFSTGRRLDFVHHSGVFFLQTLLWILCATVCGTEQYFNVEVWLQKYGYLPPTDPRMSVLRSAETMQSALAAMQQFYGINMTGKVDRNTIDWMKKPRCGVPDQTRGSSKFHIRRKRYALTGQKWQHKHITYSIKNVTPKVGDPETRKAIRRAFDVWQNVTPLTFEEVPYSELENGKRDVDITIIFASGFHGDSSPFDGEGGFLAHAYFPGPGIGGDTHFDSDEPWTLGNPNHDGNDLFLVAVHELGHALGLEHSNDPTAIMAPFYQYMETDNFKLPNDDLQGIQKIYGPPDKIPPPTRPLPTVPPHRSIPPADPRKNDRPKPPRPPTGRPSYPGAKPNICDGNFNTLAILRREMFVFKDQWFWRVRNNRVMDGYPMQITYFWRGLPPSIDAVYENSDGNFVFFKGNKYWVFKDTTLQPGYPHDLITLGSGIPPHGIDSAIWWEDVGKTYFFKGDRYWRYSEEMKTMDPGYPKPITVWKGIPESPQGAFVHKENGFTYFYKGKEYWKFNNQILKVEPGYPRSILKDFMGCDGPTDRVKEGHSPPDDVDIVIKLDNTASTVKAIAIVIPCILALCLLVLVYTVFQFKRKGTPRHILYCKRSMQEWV

[21] = Selectivity for pig TACE over MMP1
[22] = Selectivity for pig TACE over MMP2
[23] = Selectivity for pig TACE over MMP7
[24] = Selectivity for pig TACE over MMP3
[25] = biological target: T12, Macrophage metalloelastase; experiment: Inhibition of MMP12 up to 100 uM
Target sequence in this assay (P39900 106-470 limits assumed): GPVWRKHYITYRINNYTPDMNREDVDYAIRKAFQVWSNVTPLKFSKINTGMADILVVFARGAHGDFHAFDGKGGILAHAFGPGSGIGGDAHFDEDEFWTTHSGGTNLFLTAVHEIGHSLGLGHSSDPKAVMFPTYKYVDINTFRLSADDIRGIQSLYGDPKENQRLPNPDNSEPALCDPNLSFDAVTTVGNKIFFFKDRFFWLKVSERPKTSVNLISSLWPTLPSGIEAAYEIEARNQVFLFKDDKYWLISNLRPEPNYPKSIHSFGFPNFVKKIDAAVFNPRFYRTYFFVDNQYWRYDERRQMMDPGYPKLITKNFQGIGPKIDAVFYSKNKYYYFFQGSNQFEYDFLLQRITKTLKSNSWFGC

[26] = biological target: T2, Matrix metalloproteinase-14; experiment: Inhibition of MMP14 up to 100 uM
[27] = biological target: T9, Matrilysin (Homo sapiens); experiment: Inhibition of MMP7 up to 100 uM
[28] = biological target: T13, Matrix metalloproteinase-16; experiment: Inhibition of MMP16 up to 100 uM
Neutrophil collagenase [29] = biological target: T5, Neutrophil collagenase; experiment: Inhibition of MMP8 up to 100 uM
Target sequence in this assay (P22894 101-467 limits assumed): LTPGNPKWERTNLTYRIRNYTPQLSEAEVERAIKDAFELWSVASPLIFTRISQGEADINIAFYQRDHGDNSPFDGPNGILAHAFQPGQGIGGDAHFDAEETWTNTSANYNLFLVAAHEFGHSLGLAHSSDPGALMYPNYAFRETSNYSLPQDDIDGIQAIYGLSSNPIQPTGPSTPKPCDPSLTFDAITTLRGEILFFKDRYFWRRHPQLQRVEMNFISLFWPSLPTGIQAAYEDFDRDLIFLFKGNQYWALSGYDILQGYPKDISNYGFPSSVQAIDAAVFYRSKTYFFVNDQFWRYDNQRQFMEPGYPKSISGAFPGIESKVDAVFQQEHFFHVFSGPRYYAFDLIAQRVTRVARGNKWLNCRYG

[30] = biological target: T1, 72 kDa type IV collagenase; experiment: Inhibition of MMP2 up to 100 uM
[31] = biological target: T3, Matrix metalloproteinase-9; experiment: Inhibition of MMP9 up to 100 uM
Stromelysin-2 [32] = biological target: T4, Stromelysin-2; experiment: Inhibition of MMP10 up to 100 uM
Target sequence in this assay (P09238 99-476 limits assumed): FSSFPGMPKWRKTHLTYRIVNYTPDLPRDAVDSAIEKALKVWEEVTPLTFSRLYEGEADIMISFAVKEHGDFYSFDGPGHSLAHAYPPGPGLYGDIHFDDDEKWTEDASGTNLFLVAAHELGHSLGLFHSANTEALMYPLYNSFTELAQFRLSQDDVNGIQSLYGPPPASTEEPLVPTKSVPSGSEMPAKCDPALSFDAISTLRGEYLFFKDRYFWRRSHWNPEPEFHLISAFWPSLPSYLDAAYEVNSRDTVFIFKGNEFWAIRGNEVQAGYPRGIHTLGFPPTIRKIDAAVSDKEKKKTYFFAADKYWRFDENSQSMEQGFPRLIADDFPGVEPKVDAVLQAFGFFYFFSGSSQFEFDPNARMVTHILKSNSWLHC

Stromelysin-1 [33] = biological target: T7, Stromelysin-1; experiment: Inhibition of MMP3 up to 100 uM
[34] = biological target: T10, Interstitial collagenase (Homo sapiens); experiment: Inhibition of MMP1 at 100 uM

For Cc1cc(COc2ccc([C@]3(C)CCN([C@H](C)C(=O)NO)C3=O)cc2)c2ccccc2n1, the IC50 (tissue or blood) was 0.00035 µM and the Ki [1] was 0.015 µM.
In the case of Cc1cc(COc2ccc(C(=O)N[C@@]3(CC(=O)NO)C[C@@H](C)N[C@@H](C)C3)cc2)c2ccccc2n1, the Ki [2] is reported as over 3 µM, the Ki (Collagenase 3) is reported as over 5 µM and the Ki [3] is reported as 1.7 µM. For the same molecule, the Ki [4] was 0.163 µM, the Ki [5] was 7.8 µM and the Ki [6] was over 3 µM. For the same molecule, the Ki (Stromelysin-2 [7]) was 1.65 µM, the Ki (Neutrophil collagenase [8]) was 2.05 µM and the Ki [9] was 0.0028 µM. For the same molecule, the Ki [10] was 1.9 µM, the Ki [11] was over 3 µM and the Ki (Stromelysin-1 [12]) was 0.762 µM. For the same molecule, the Ki (Interstitial collagenase) was over 5 µM.
With CS(=O)(=O)NCc1noc([C@H](CCCC2CCCCC2)CC(=O)NO)n1 the Ki (Collagenase 3) was 91 µM, the Ki [13] was 0.011 µM and the Ki [4] was over 100 µM. The Ki [6] was over 100 µM, the Ki (Stromelysin-1 [12]) was over 100 µM and the Ki (Interstitial collagenase) was 0.001 µM.
In the case of COc1ccc(CNC(=O)c2cc3c(=O)n(Cc4ccc(C(=O)O)cc4)cnc3cn2)cc1, the Activity [14] is reported as “inactive”, the Activity [4] is reported as “inactive” and the Activity [15] is reported as “inactive”. The Activity [6] was “inactive”, the Activity [16] was “inactive” and the Activity [17] was “inactive”. The Activity (Neutrophil collagenase [8]) was “inactive”.
In the case of O=C1NCCCC[C@@H](C(=O)NCC(=O)N2CCOCC2)NC(=O)[C@H](Cc2ccc(-c3ccccc3C(F)(F)F)cc2)[C@@H](C(=O)NO)CCCO1, the Ki [2] is reported as over 2 µM, the fold change (FC) [18] is reported as 45 and the Ki [3] is reported as over 2 µM. It also gave a Ki [4] of over 2 µM, a fold change (FC) [19] of over 100 and a Ki [20] of over 2 µM. The Ki [6] was over 2 µM, the Ki (Stromelysin-2 [7]) was over 2 µM and the Ki [17] was over 2 µM. For the same molecule, the Ki (Neutrophil collagenase [8]) was 0.2 µM, the fold change (FC) [21] was over 100 and the fold change (FC) [22] was over 100. It also gave a fold change (FC) [23] of over 100, a fold change (FC) [24] of over 100 and a Ki (Stromelysin-1 [12]) of over 2 µM. It also gave a Ki (Interstitial collagenase) of over 2 µM.
For O=C(NCc1cccnc1)c1cc(C(=O)NCc2cccnc2)ncn1, the Activity [25] was “inactive”, the Activity [26] was “inactive” and the Activity [27] was “inactive”. The Activity [28] was “inactive”, the Activity (Neutrophil collagenase [29]) was “inactive” and the Activity [30] was “inactive”. For the same molecule, the Activity [31] was “inactive”, the Activity (Stromelysin-2 [32]) was “inactive” and the Activity (Stromelysin-1 [33]) was “inactive”. For the same molecule, the Activity [34] was “inactive”.
